# Values quoted from earlier work, collected in patent publication US20230393151A1, “Precision Targeted Retromer Therapeutics for the Treatment of Neurodegenerative Diseases and Disorders” (The Trustees of Columbia University in the City of New York, priority 2020, published 2023).
# Tests used:
# [1] = target: purified, reconstituted heterotrimeric complex (retromer) (Homo sapiens, UniProt Q96QK1+Q9UBQ0); settings: incubated with complex at various concentrations; Mecozzi et al. 2014
# VPS35 and VPS26 = target: T1, VPS35 and VPS26 (Mus musculus, UniProt Q9EQH3+Q9QZ88); settings: cultured primary neurons; Mecozzi et al. 2014
# T1 construct: endogenous in cells
structure (smiles),measurement,setting,value
[H]/N=C(\N)SCc1ccc(CS/C(N)=N/[H])s1 [R55],Thermal stability of retromer complex,[1],improved thermal stability significantly
same,VPS35 and VPS26 protein levels,VPS35 and VPS26,increased
